Test results: PMC6268357, “Synthesis and Biological Evaluation of New Ligustrazine Derivatives as Anti-Tumor Agents” (Molecules, 2012)
Values after ≈ are worked out from the molar mass of the structure shown. “Also recorded” adds a separate entry of the source. Like-named read-outs stand apart in the source and are kept apart here.

Columns and labels:
[1] = tested on: A-549 human cancer cell line; assay: MTT anti-proliferation assay, A549; assay type: cell-based; conditions: for IC50: Homo sapiens, read-out: IC50 A549
Experimental: (§1) The cytotoxicities of these compounds were tested on five cancer cell lines by the standard MTT assay. […] The growing tumor cells at a density 10^4 cells/mL were exposed to various concentrations of the tested drugs and incubated in a 96-well microtiter plate for 96 h (37 °C, 5% CO2). After MTT solution (20 μL, 5 mg/mL) was added to each well, the plate was incubated for a further 4 h. Then the media was removed. Formazan crystals were dissolved with DMSO (150 μL). After mixing well, the absorbance was quantified at 570 nm with a BIORAD 550 spectrophotometer. Wells containing no drugs were used as blanks. […] Tumor cell growth inhibitory rate was calculated in the following equation (1): [drawing 3] (1)

[2] = tested on: BGC-823 human cancer cell line; assay: MTT anti-proliferation assay, BGC-823; assay type: cell-based; conditions: for IC50: Homo sapiens, read-out: IC50 BGC-823
Experimental: as §1

[3] = tested on: Bel-7402 human cancer cell line; assay: MTT anti-proliferation assay, Bel-7402; assay type: cell-based; conditions: for IC50: Homo sapiens, read-out: IC50 Bel 7402
Experimental: as §1

[4] = tested on: A2780 human cancer cell line; assay: MTT anti-proliferation assay, A2780; assay type: cell-based; conditions: for IC50: Homo sapiens, read-out: IC50 A2780
Experimental: as §1

[5] = tested on: chick chorioallantoic membrane (CAM); assay: Chick chorioallantoic membrane (CAM) angiogenesis assay; assay type: in vivo, White Leghorn chicken; conditions: for Number of microvessels on CAM, treatment (mean ± s): n = 6, implanted day 7, read day 11, microvessels 1 to 100 μm in diameter; for Anti-angiogenesis effect on CAM (in words): doses of 10 μg/egg and 40 μg/egg
Experimental: Fertilized White Leghorn chicken eggs, provided by the Chinese Academy of Agricultural Sciences, were placed in an incubator as soon as embryogenesis started and were kept under constant humidity of 65% at 37 °C. On day 7, a square window was opened on the shell and physiological saline (0.1 mL) was injected in to detach the shell membrane. Then gelatin sponges carrying the TMP stimulator derivatives at 10 μg/egg and 40 μg/egg were implanted, respectively. The control group was treated with physiological saline. The windows were sealed with medical adhesive tape and the incubation went on till the experiment day. The above steps were performed under sterile conditions. On the 11th day, the tapes were removed and the entire CAM was detached after tissue fixation with methanol/acetone (1:1, v/v). Then we used computer-assisted image tracking to obtain absolute values for the number of microvessels which were 1 to 100 μm in diameter. Data were analyzed using the t-test option of the of Statistics Analysis System, the values were expressed as mean ± s of 6 observations and P < 0.05 was considered significant.

[6] = tested on: HCT-8 human cancer cell line; assay: MTT anti-proliferation assay, HCT-8; assay type: cell-based; conditions: for IC50: Homo sapiens, read-out: IC50 HCT-8
Experimental: as §1

[7] = Acute toxicity by oral administration in mice; assay type: in vivo; conditions: both sexes, Kunming, mouse, in vivo, 3 g/kg, oral administration
Experimental: (§2) Kunming mice (Beijing Vital River Laboratory Animal Technology Company Limited, China) of both sexes, weighing 18–22 g, were divided into […] matched in weight and size. The mice were placed in cages and kept under standard environmental conditions with a standard rodent diet and water ad libitum under a 12 h light-dark cycle. They were deprived of food for 24 h but allowed free access to tap water throughout the experiments. This research was carried out in accordance with the “Regulation for the Administration of Affairs Concerning Experimental Animals” (State Council of China, 1988).
(§3) The maximum suspended dose (75 mg/mL) of 5 was prepared in bean oil solution, then one group of 20 mice of both sexes were administered the maximum tolerated dose (0.4 mL/10 g) by oral administration. The other 20 mice, the control group, were gave bean oil (0.4 mL/10 g) via gavage.The general behavior of the mice was observed continuously for 1 h after the treatment and then intermittently for 4 h, and thereafter over a period of 24 h. The mice were further observed for up to 14 days following treatment for any signs of toxicity and deaths, and the latency of death. Behavioral, toxic effects and mortality response were recorded.

Kunming mice = assay: Acute toxicity by oral administration in mice; assay type: in vivo; conditions: oral (gavage) 3 g/kg in bean oil, observed two weeks
Experimental: as §2, §3

[8] = MTT, 96 h exposure, maximal tested concentration 10.0 ig/mL
[9] = A549, MTT, 96 h exposure, maximal tested concentration 10.0 ig/mL
[10] = BGC-823, MTT, 96 h exposure, maximal tested concentration 10.0 ig/mL
[11] = Bel-7402, MTT, 96 h exposure, maximal tested concentration 10.0 ig/mL
[12] = A2780, MTT, 96 h exposure, maximal tested concentration 10.0 ig/mL
[13] = HCT-8, MTT, 96 h exposure, maximal tested concentration 10.0 ig/mL

Row | Compound | Number of microvessels on CAM, treatment (mean ± s) ([5]; dose 10 μg/egg) | Number of microvessels on CAM, treatment (mean ± s) ([5]; dose 40 μg/egg) | IC50 [1, 9] | IC50 [2, 10] | IC50 [3, 11] | IC50 [4, 12] | IC50 [6, 13] | also measured
1 | 1,7-bis(4-(3,5,6-Trimethylpyrazin-2-yl)-3-methoxyphenyl)-1,6-heptadiene-3,5-dione [Compound 4] | 3.8 ± 2.79 | 1.4 ± 1.22 | – | – | – | – | – | IC50 A549 [1, 8]: 5.890 µg/mL; IC50 BGC-823 [2, 8]: 5.472 µg/mL; IC50 Bel 7402 [3, 8]: 6.391 µg/mL; IC50 A2780 [4, 8]: 5.540 µg/mL; Anti-angiogenesis effect on CAM (in words) [5]: dramatically block the growth of new vessels; IC50 HCT-8 [6, 8]: 7.106 µg/mL
2 | C[C@H](CCC(=O)O)[C@H]1CC[C@H]2[C@@H]3[C@H](O)C[C@@H]4C[C@H](O)CC[C@]4(C)[C@H]3C[C@H](O)[C@]12C [CA, cholic acid] | – | – | – | – | – | – | – | IC50 ([1]; A549, 96 h): > 10 µg/mL; IC50 ([2]; BGC-823, 96 h): > 10 µg/mL; IC50 ([3]; Bel-7402, 96 h): > 10 µg/mL; IC50 ([4]; A2780, 96 h): > 10 µg/mL; IC50 ([6]; HCT-8, 96 h): > 10 µg/mL
3 | O=C(O)/C=C/c1ccccc1 [CIA, cinnamic acid] | – | – | > 10 µg/mL | > 10 µg/mL | > 10 µg/mL | > 10 µg/mL | > 10 µg/mL | –
4 | COc1cc(/C=C/C(=O)CC(=O)/C=C/c2ccc(O)c(OC)c2)ccc1O [CU, curcumin] | – | – | 6.52 µg/mL (≈ 17.7 µM) | 6.81 µg/mL (≈ 18.5 µM) | 6.5 µg/mL (≈ 17.6 µM) | 6.52 µg/mL (≈ 17.7 µM) | 6.28 µg/mL (≈ 17 µM) | –
5 | Cc1nc(C)c(COC(=O)CC[C@@H](C)C2CCC3C4CCC5C[C@H](O)CCC5(C)C4C[C@H](O)C32C)nc1C (stereo partly drawn) [Compound 5, 3 α,12α-Dihydroxy-5β-dholanic acid-3,5,6-trimethylpyrazin-2-methyl ester] | 4.8 ± 3.71 | 7.5 ± 3.40 | 6.69 µg/mL (≈ 12.7 µM) | 6.66 µg/mL (≈ 12.6 µM) | 8.01 µg/mL (≈ 15.2 µM) | 6.62 µg/mL (≈ 12.6 µM) | 7.43 µg/mL (≈ 14.1 µM) | LD50 at 14 days [7]: > 3000 mg/kg; MTD at 14 days ([7]; read-out: Maximum tolerated dose): 3000 mg/kg; Deaths or signs of toxicity (Kunming mice): no deaths or signs of toxicity observed; also recorded: no toxicity; Anti-angiogenesis effect on CAM (in words) [5]: dramatically block the growth of new vessels
6 | Cc1nc(C)c(COC(=O)CC[C@@H](C)C2CCC3C4C(C[C@H](O)C32C)C2(C)CC[C@@H](O)CC2C[C@H]4O)nc1C (stereo partly drawn) [Compound 6, 3α,7α,12α-Trihydroxy-5β-cholanic acid-3,5,6-trimethylpyrazin-2-methyl ester] | 6.2 ± 2.40 | 5.7 ± 2.07 | > 10 µg/mL | > 10 µg/mL | > 10 µg/mL | > 10 µg/mL | > 10 µg/mL | –
7 | Cc1nc(C)c(COC(=O)C23CCC(C)(C)CC2C2=CCC4C5(C)CCC(O)C(C)(C)C5CCC4(C)[C@]2(C)CC3)nc1C (stereo partly drawn) [Compound 7, 3β-Hydroxyolea-12-en-28-oic acid-3,5,6-trimethylpyrazin-2-methyl ester] | 12.0 ± 2.90 | 9.5 ± 4.55 | > 10 µg/mL | > 10 µg/mL | 7.61 µg/mL (≈ 12.9 µM) | > 10 µg/mL | 9.27 µg/mL (≈ 15.7 µM) | –
8 | C=C(CCC(C(=O)OCc1nc(C)c(C)nc1C)C1[C@H](O)C[C@@]2(C)C3=C(CCC12C)C1(C)CCC(OC(C)=O)C(C)(C)C1CC3)C(C)C (stereo partly drawn) [Compound 8, 3β-Acetoxy-16α-hydroxy-lanosta-8,24(31)-diene-21-oic acid-3,5,6-trimethylpyrazin-2-methyl ester] | 9.7 ± 3.98 | 10.8 ± 5.12 | > 10 µg/mL | > 10 µg/mL | > 10 µg/mL | > 10 µg/mL | > 10 µg/mL | –
9 | C=C(CCC(C(=O)OCc1nc(C)c(C)nc1C)C1[C@H](O)C[C@@]2(C)C3=CCC4C(C)(CCC(OC(C)=O)C4(C)C)C3=CCC12C)C(C)C (stereo partly drawn) [Compound 9, 3β-Acetoxy-16α-hydroxy-lanosta-7,9(11),24(31)-trien-21-oic acid-3,5,6-trimethylpyrazin-2-methyl ester] | 7.7 ± 2.16 | 5.7 ± 1.21 | 8.77 µg/mL (≈ 13.3 µM) | > 10 µg/mL | > 10 µg/mL | > 10 µg/mL | > 10 µg/mL | –
10 | Cc1nc(C)c(COC(=O)[C@@]2(C)CCC3(C)CC[C@]4(C)C(=CC(=O)C5C6(C)CCC(O)C(C)(C)C6CCC54C)C3C2)nc1C (stereo partly drawn) [Compound 10, (3β,18α,20β)-3-Hydroxy-11-oxoolean-12-en-29-oicacid-3,5,6-trimethylpyrazin-2-methyl ester] | 9.5 ± 1.76 | 9.8 ± 2.14 | > 10 µg/mL | > 10 µg/mL | > 10 µg/mL | > 10 µg/mL | > 10 µg/mL | –
11 | Cc1nc(C)c(COC(=O)/C=C/c2ccccc2)nc1C [Compound 11, 3-Phenyl-2-propenoic acid-3,5,6-trimethylpyrazin-2-methyl ester] | 10.3 ± 2.73 | 7.0 ± 3.03 | 7.83 µg/mL (≈ 27.7 µM) | > 10 µg/mL | 9.4 µg/mL (≈ 33.3 µM) | > 10 µg/mL | > 10 µg/mL | –
12 | C[C@H](CCC(=O)O)[C@H]1CC[C@H]2[C@@H]3CC[C@@H]4C[C@H](O)CC[C@]4(C)[C@H]3C[C@H](O)[C@]12C [DA, deoxycholic acid] | – | – | > 10 µg/mL | > 10 µg/mL | > 10 µg/mL | > 10 µg/mL | > 10 µg/mL | –
13 | C=C(CCC(C(=O)O)[C@H]1[C@H](O)C[C@@]2(C)C3=CC[C@H]4C(C)(C)[C@@H](OC(C)=O)CC[C@]4(C)C3=CC[C@]12C)C(C)C (stereo partly shown) [DPA, dehydropachymic acid] | – | – | – | – | – | – | – | IC50 A549 [1, 8]: — (IC50 > 10.0 ig/mL); IC50 BGC-823 [2, 8]: — (IC50 > 10.0 ig/mL); IC50 Bel 7402 [3, 8]: — ^a (IC50 > 10.0 ig/mL); IC50 A2780 [4, 8]: — (IC50 > 10.0 ig/mL); IC50 HCT-8 [6, 8]: — (IC50 > 10.0 ig/mL)
14 | CC1(C)[C@@H](O)CC[C@]2(C)[C@H]3C(=O)C=C4[C@@H]5C[C@@](C)(C(=O)O)CC[C@]5(C)CC[C@@]4(C)[C@]3(C)CC[C@@H]12 [GA, glycyrrhetinic acid] | – | – | > 10 µg/mL | > 10 µg/mL | > 10 µg/mL | > 10 µg/mL | > 10 µg/mL | –
15 | CC1(C)CC[C@]2(C(=O)O)CC[C@]3(C)C(=CC[C@@H]4[C@@]5(C)CC[C@H](O)C(C)(C)[C@@H]5CC[C@]43C)[C@@H]2C1 [OA, oleanolic acid] | – | – | > 10 µg/mL | > 10 µg/mL | > 10 µg/mL | > 10 µg/mL | > 10 µg/mL | –
16 | C=C(CC[C@@H](C(=O)O)[C@H]1[C@H](O)C[C@@]2(C)C3=C(CC[C@]12C)[C@@]1(C)CC[C@H](OC(C)=O)C(C)(C)[C@@H]1CC3)C(C)C [PA, pachymic acid] | – | – | > 10 µg/mL | > 10 µg/mL | > 10 µg/mL | > 10 µg/mL | > 10 µg/mL | –
17 | Cc1nc(C)c(C)nc1C [TMP, ligustrazine] | – | – | > 10 µg/mL | > 10 µg/mL | > 10 µg/mL | > 10 µg/mL | > 10 µg/mL | –
